# Legend:
# LRRK2 WT [1] = target: T1, LRRK2 WT (Homo sapiens, UniProt Q5S007); assay: In vitro kinase assay: LRRK2 autophosphorylation; format: biochemical; settings: dose-response
# LRRK2 WT [2] = target: T1, LRRK2 WT; assay: In vitro kinase assay: LRRK2-mediated MBP phosphorylation; format: biochemical; settings: dose-response
# LRRK2 G2019S [3] = target: T2, LRRK2 G2019S (Homo sapiens, UniProt Q5S007, G2019S); assay: In vitro kinase assay: G2019S LRRK2 autophosphorylation; format: biochemical; settings: dose-response
# Protocol: (§1) Transfection was performed by using Fugene HD reagent (Roche Applied Science) according to the manufacturer's instruction. For purification of recombinant LRRK1 and LRRK2 proteins, ACTA Purifier (GE Healthcare) FPLC system was used.
# (§2) Resulting lysates were rotated at 4° C. for 30 min followed by centrifugation at 20,000×g for 15 min. The supernatants were injected into a GSTrap FF column pre-equilibrated with PBS at 0.5. mL/min flow after filtration using a 0.2 μm syringe filter (Corning). The bound proteins were eluted with buffer containing 10 mM GSH (Sigma), 150 mM NaCl, and 50 mM Tris-HCl (pH 8.0).
# (§3) The in vitro kinase assay was performed as previously described. […] Recombinant LRRK2 and MBP or CST-4E-BP1 were combined before the kinase reaction. LRRK2 autophosphorylation is LRRK2 itself phosphorylation and MBP or GST-4E-BP1 phosphorylation is induced by LRRK2. After the kinase reaction, combined LRRK2 and MBP or GST-4E-BP1 were loaded on SDSPAGE and phosphorylated LRRK2 and MBP or GST-4E-BP1 could be detected separately an a single gel. Recombinant proteins and inhibitors were incubated at 30° C. in kinase assay buffer containing 20 mM Hepes (pH 7.4), 5 mM EGTA, and 20 mM β-glycerol phosphate. 0.5 μg MBP (Upstate) or 0.5 μg GST-4B-BP1, 50 μM ATP (Sigma), 20 mM MgCl2, and 1 μCi [γ-32P] ATP (PerkinElmer) was added after 5 min. The reaction was performed at 30° C. to reduce non-specific 32P incorporation for 15 min and terminated by the addition of 5×Laemmili sample buffer. […] Gels were stained by coomassie brilliant blue after fixation with 10% acetic acid and 40% methanol and then exposed to a Phosphoimager. Data were analyzed by ImageQuant 6.0 software.
# (§4) To calculate the IC50 value, a dose-response curve was constructed and non-linear regression analysis using the equation for a sigmoid plot.
# LRRK2 G2019S [4] = target: T2, LRRK2 G2019S; assay: In vitro kinase assay: G2019S LRRK2-mediated MBP phosphorylation; format: biochemical; settings: dose-response
# Protocol: as §1, §2, §3, §4
# LRRK1 WT [5] = target: T3, LRRK1 WT (Homo sapiens, UniProt Q38SD2); assay: In vitro kinase assay: LRRK1 autophosphorylation; format: biochemical
# LRRK1 WT [6] = target: T3, LRRK1 WT; assay: In vitro kinase assay: LRRK1-mediated MBP phosphorylation; format: biochemical
# G2019S LRRK2 = G2019S LRRK2 (Homo sapiens, UniProt Q5S007, G2019S); assay: In vitro kinase assay: LRRK2-mediated phosphorylation of 4E-BP1; format: biochemical
# Protocol: The GST-4E-BP1 expressing vector was generated using the Invitrogen Gateway LR Clonase System. Briefly, an entry clone containing the 4E-BP1 sequence was reacted with the destination vector, pDEST-15 in the presence of the LR clonase mixture. After the clonase reaction, the mixture was transformed into One Shot BL21 chemically competent E. coli. The transformed cells were grown on ampicillin containing LB agar plate for one day at 37° C. Colonies containing GST-4E-BP1 were isolated. For protein induction, 100 μM IPTG was added to 100 mL culture and incubated for 3 h at 30° C. After IPTG incubation, cells were collected by centrifugation at 3,000×g for 15 min. The pellet was lysed with sonication in the presence of lysis butter containing 0.5% TX-100, 50 mM Tris-HCl (pH 8.0), 100 mM NaCl, 0.5 mM EGTA, 5 mM MgCl2, 2 mM DTT, and complete protease inhibitors. The lysate was centrifugated at 15,000×g for 15 min and the supernatant was incubated with GSH-sepharose beads for 2 h at 4° C. After incubation, the beads were washed with PBS containing an additional 150 mM NaCl and 0.1% TX-100 three times. The protein was eluted with elution buffer containing Hepes (pH 8.0), 150 mM NaCl, 30% glycerol, and 30 mM glutathione. The eluted proteins were stored at −80° C.
# The in vitro kinase assay was performed as previously described. West, A. B. et al. Parkinson's disease-associated mutations in leucine-rich repeat kinase 2 augment kinase activity. Proc Natl Acad Sci USA 102, 16842-16847 (2005). Recombinant LRRK2 and MBP or CST-4E-BP1 were combined before the kinase reaction. LRRK2 autophosphorylation is LRRK2 itself phosphorylation and MBP or GST-4E-BP1 phosphorylation is induced by LRRK2. After the kinase reaction, combined LRRK2 and MBP or GST-4E-BP1 were loaded on SDSPAGE and phosphorylated LRRK2 and MBP or GST-4E-BP1 could be detected separately an a single gel. Recombinant proteins and inhibitors were incubated at 30° C. in kinase assay buffer containing 20 mM Hepes (pH 7.4), 5 mM EGTA, and 20 mM β-glycerol phosphate. 0.5 μg MBP (Upstate) or 0.5 μg GST-4B-BP1, 50 μM ATP (Sigma), 20 mM MgCl2, and 1 μCi [γ-32P] ATP (PerkinElmer) was added after 5 min. The reaction was performed at 30° C. to reduce non-specific 32P incorporation for 15 min and terminated by the addition of 5×Laemmili sample buffer. The reactions were then heated at 70° C. for 10 min and resolved by 12% SDS-PAGE. Gels were stained by coomassie brilliant blue after fixation with 10% acetic acid and 40% methanol and then exposed to a Phosphoimager. Data were analyzed by ImageQuant 6.0 software.
# [7] = test system: rat primary cortical neuronal cultures transfected with G2019S LRRK2; assay: LRRK2-induced neuronal toxicity in primary cortical neuronal cultures (neurite shortening, TUNEL); format: cell-based; settings: 0.5 μM
# Protocol: Representative photomicrographs of each experimental group. LRRK2 and eGFP constructs were combined in a molar ratio of 10:1, respectively, and transfected by using of Lipofectamine 2000 (Invitrogen) at DIV (day in vitro) 14 into rat primary cortical neuronal cultures. Compounds (0.5 μM) were administrated at the time of transfection and continued until toxicity assessments. On DIV 16, images were collected on a Zeiss Automatic stage with Axiovision 6.0. (a) Low magnified photomicrographs; (b and c) High magnified photomicrographs. Scale bar=50 μm (a) and 10 μm (b and c);
# Primary cortical neuronal cultures were prepared from gestational day 15 fetal rats as previously described. Gonzalez-Zulueta, M., et al. Manganese superoxide dismutase protects nNOS neurons from NMDA and nitric oxide-mediated neurotoxicity. J Neurosci 18, 2040-2055 (1998). All procedures used in this study were approved by the Johns Hopkins Medical Institute Animal Care Committee. Cell viability assays and DNA fragmentation (TUNEL assay) were performed as previously described. Smith, W. W., et al. Kinase activity of mutant LRRK2 mediates neuronal toxicity. Nat Neurosci 9, 1231-1233 (2006); West, A. B., et al. Parkinson's disease-associated mutations in LRRK2 link enhanced GTP-binding and kinase activities to neuronal toxicity. Hum Mol Genet 16, 223-232 (2007). The cortex was dissected, incubated for 15 min in 0.027% trypsin, and then transferred to modified Eagle's medium (MEM)/10% horse serum/10% fetal bovine serum/2 mM glutamine followed by trituration. Dissociated cells were plated at a density of 3-4×10^5 cells per well in polyornithine-coated plates. After 4 days the cells were treated with 10 μg of 5-fluoro-2′-deoxyuridine to prevent proliferation of nonneuronal cells. Cells were maintained in MEM/5% horse serum/2 mM glutamine in 8% CO2 incubator. The medium was changed twice weekly. For assessment of LRRK2-mediated neuronal injury, LRRK2 and eGFP constructs were combined in a molar ratio of 10:1, respectively, and transfected into neurons with Lipofectamine 2000 (Invitrogen) at DIV (day in vitro) 14. On DIV 16, images were collected on a Zeiss Automatic stage with Axiovision 6.0. Viable neurons were defined as having at least one smooth extension (neurite) with twice the length of the cell body. The percentage of eGFP-positive injured neurons in each experimental group relative to those neurons transfected with eGFP was calculated.
# [8] = from literature; cited from earlier work
# [9] = test system: C. elegans expressing LRRK2 G2019S in DA neurons; assay: Transgenic nematode model of LRRK2 G2019S-induced DA neurodegeneration; format: in vivo, Caenorhabditis elegans
# Protocol: Nematodes were maintained following the standard procedures. Brenner, S., 771 GENETICS 71-94 (1974). Isogenic worm strains expressing LRRK2, G2019S, UAXX [baInlX; Pdat-1::LRRK2 G2019S, Pdat-1::gfp] were generated via microinjection, integrated into the genome and out-crossed three times. Age-synchronized worms were obtained by treating gravid adults with 2% sodium hypochlorite and 0.5M NaOH to isolate embryos. Lewis, J. A., 48 METHODS CELL BIOL. 3-29 (1995). These embryos were treated with indicated concentrations of LRRK2 kinase inhibitors, which were dissolved in 1% DSMO, for 24 h. at 20° C. with gentle shaking. The worms were then washed and transferred into NGM plates seeded with OP50 bacteria, and incubated as 20° C. The six anterior DA neurons (4 CEP and 2 ADE neurons) of 30 animals/trial were examined for neurodegeneration when the animals were 7 days old. A total of 90 animals for each treatment were analyzed (3 trials of 30 animals/trial). […] See Hamamichi et al., 105(2) PROC. NATL. ACAD. SCI. USA 728-33 (2008); and Cao et al, 25 J. NEUROSCI. 3801-12 (2005). For each trial, 30 worms were transferred into a 2% agarose pad, immobilized with 2 mM levamisole, and analyzed using Nikon Eclipse E800 epifluorescence microscope equipped with Endow GFP HYQ filter cube (Chrom Technology, Rockingham, Vt.). Images were captured with a Cool Snap CCD camera (Photometrics, Tucson, Ariz.) driven by MetaMorph software (Universal Imaging, West Chester, Pa.).
# To determine whether the LRRK2 kinase inhibitors protect against LRRK2-induced neurodegeneration in vivo, the LRRK2 kinase inhibitors were tested in the C. elegans model of LRRK2 G2019S-induced neurodegeneration described above. The DA transporter (dat-1) was used to direct expression of LRRK2 G2019S in DA neurons.
# T3 sequence (Q38SD2 whole entry): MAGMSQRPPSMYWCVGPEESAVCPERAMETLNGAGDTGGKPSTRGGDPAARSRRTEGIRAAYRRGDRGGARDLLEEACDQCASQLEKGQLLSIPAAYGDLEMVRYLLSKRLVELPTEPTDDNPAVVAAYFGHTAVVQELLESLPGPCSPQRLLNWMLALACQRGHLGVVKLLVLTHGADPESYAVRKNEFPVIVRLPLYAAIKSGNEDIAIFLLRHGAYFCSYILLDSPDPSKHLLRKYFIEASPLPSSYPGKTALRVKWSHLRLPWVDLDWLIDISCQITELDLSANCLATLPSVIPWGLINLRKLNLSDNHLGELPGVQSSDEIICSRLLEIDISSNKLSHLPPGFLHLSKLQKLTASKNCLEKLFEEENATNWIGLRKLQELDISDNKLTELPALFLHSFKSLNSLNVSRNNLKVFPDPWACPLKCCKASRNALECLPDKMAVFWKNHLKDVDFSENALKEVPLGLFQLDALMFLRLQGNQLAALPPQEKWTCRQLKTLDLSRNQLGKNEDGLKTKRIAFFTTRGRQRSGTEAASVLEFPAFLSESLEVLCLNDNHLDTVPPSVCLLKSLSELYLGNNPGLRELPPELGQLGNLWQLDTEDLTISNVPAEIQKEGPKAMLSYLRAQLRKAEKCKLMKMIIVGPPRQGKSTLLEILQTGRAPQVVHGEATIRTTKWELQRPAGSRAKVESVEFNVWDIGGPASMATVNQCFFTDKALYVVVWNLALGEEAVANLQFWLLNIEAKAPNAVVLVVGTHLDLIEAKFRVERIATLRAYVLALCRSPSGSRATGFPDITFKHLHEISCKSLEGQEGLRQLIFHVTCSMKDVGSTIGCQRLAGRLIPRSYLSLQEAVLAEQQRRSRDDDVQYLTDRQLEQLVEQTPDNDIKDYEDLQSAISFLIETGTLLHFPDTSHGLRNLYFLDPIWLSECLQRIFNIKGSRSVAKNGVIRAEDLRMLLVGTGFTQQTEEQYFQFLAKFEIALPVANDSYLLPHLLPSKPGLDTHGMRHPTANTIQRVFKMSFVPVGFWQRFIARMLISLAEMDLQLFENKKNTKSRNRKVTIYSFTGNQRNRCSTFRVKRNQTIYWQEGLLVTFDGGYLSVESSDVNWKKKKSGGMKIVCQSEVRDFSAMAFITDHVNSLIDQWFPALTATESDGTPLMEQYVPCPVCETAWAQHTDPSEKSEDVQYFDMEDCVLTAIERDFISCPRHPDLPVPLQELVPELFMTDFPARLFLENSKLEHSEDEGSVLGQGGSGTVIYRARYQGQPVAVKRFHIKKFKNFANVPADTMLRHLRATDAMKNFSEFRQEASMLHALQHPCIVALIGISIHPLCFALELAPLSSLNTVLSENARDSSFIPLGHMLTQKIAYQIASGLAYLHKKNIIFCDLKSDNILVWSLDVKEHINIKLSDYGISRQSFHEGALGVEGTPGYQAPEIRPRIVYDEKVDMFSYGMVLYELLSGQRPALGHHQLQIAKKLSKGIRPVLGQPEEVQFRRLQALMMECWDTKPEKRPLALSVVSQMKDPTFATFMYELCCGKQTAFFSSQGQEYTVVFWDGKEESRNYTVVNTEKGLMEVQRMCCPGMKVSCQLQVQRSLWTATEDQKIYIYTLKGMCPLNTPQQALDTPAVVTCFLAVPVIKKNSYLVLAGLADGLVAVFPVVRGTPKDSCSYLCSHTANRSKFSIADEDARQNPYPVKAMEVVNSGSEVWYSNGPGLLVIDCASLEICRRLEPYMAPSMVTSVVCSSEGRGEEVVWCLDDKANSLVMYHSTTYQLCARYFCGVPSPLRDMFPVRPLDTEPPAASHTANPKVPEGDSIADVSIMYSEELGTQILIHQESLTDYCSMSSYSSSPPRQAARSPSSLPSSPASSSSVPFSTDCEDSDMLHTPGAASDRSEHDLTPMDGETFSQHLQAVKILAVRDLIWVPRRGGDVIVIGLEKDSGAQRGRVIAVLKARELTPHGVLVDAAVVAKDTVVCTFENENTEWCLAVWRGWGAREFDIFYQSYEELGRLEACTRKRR
# T1 sequence (Q5S007 whole entry): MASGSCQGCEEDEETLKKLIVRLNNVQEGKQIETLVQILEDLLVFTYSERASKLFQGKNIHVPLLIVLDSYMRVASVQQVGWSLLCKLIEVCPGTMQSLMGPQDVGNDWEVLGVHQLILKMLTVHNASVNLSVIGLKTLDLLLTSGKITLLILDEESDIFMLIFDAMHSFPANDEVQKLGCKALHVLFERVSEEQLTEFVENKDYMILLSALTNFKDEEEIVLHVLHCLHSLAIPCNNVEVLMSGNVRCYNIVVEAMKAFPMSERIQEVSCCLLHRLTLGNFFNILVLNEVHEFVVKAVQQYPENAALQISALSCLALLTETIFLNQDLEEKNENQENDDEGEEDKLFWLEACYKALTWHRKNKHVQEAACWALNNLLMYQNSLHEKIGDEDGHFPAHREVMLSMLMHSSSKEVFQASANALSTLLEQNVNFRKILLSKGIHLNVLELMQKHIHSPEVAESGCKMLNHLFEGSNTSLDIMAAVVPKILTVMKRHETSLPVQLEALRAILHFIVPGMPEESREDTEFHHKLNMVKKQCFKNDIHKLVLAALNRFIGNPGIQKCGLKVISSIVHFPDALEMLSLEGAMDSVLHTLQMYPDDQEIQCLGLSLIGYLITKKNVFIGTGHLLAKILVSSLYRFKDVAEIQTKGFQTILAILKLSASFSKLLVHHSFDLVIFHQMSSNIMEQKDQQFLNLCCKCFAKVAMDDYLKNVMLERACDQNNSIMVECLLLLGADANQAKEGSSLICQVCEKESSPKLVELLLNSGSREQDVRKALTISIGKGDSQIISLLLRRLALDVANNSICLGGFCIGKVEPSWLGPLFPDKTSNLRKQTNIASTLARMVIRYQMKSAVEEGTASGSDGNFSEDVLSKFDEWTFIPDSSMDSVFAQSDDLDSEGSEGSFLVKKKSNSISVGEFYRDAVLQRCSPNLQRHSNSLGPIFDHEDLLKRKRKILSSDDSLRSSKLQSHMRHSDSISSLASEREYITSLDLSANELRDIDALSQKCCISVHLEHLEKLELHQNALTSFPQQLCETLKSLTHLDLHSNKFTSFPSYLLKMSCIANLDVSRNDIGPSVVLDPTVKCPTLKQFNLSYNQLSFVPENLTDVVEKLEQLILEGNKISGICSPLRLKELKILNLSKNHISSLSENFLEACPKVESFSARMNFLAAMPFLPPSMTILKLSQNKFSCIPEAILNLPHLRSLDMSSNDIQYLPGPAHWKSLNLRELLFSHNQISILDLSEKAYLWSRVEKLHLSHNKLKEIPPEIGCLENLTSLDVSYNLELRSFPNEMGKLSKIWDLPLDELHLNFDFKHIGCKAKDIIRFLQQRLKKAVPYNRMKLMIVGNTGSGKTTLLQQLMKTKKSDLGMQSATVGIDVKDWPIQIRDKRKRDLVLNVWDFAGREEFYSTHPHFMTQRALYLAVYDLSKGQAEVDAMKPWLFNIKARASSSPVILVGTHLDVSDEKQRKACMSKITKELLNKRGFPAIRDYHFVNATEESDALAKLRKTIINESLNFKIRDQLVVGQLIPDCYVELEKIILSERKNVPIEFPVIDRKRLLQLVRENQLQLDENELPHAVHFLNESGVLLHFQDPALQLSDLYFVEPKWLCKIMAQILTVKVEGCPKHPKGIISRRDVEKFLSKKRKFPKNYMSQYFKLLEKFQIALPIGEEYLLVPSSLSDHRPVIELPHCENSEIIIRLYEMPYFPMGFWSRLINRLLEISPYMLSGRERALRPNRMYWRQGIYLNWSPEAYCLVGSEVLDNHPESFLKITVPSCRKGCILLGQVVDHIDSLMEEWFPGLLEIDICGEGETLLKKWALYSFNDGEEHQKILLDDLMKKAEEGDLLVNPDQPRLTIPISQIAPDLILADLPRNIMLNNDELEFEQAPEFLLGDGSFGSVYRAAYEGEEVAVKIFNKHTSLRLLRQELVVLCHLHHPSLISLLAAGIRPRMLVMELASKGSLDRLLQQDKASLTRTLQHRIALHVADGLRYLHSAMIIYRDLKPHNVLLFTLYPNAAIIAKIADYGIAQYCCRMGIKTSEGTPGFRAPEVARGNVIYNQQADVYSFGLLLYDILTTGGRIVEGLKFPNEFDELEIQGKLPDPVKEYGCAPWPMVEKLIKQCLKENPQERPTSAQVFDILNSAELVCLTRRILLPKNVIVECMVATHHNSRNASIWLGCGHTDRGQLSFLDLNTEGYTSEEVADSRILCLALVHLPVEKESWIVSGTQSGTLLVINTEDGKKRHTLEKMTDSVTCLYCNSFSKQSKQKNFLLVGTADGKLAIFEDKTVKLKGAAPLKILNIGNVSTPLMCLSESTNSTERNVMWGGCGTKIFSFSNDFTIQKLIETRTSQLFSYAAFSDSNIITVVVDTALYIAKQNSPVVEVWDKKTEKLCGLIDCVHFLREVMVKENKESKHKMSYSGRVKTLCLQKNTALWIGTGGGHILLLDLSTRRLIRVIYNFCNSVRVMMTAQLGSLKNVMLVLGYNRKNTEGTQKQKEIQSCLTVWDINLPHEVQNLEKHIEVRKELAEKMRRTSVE
# T2 sequence (Q5S007 whole entry G2019S): as the sequence (Q5S007 whole entry) above, with G2019S counted along it
# Chain of G2019S LRRK2 (Q5S007 whole entry G2019S): as the sequence (Q5S007 whole entry) above, with G2019S counted along it
effect on WT LRRK2 autophosphorylation (LRRK2 WT [1]),effect on WT LRRK2 MBP phosphorylation (LRRK2 WT [2]),effect on G2019S LRRK2 autophosphorylation (LRRK2 G2019S [3]),effect on G2019S LRRK2 MBP phosphorylation (LRRK2 G2019S [4]),LRRK2-mediated phosphorylation of 4E-BP1 (G2019S LRRK2),SMILES,effect on LRRK1 autophosphorylation (LRRK1 WT [5]),effect on LRRK1 MBP phosphorylation (LRRK1 WT [6]),G2019S LRRK2 toxicity [7],crossing of the blood-brain barrier [8],"IC50 (LRRK1 WT [6]; Table 3, mean of three experiments) [µM]","worms with wild-type DA neurons (4 CEP and 2 ADE) ([9]; 25 μM, 7-day-old worms, n=90, 48% with 1% DMSO) [%]",rescue of DA neurodegeneration ([9]; 7 day-old worms)
no effect,no effect,no effect,no effect,did not inhibit,"O=C1Nc2ccccc2/C1=C1/Nc2ccccc2C1=O [Inhibitor 69, Indirubin]",no effect,no effect,failed to inhibit,known to cross the blood-brain barrier,–,–,–
–,–,–,–,–,CNC(=O)c1cc(Oc2ccc(NC(=O)Nc3ccc(Cl)c(C(F)(F)F)c3)cc2)ccn1 [Sorafenib],minimal to no effect,minimal to no effect,completely protected,–,13.8,62,protect worms from neurodegeneration

# Source: patent US20150018301A1, “LRRK-2-Mediated Neuronal Toxicity” (THE JOHNS HOPKINS UNIVERSITY, priority 2009, published 2015)
